In patent US8378117B2 (priority 2005, dated 2013):

Legend:
Male CD-1 mice [1] = test: Postoperative inflammatory ileus, microscopic myeloperoxidase histological examination; assay type: in vivo; details: Surgical Manipulation, 24 hr post-laparotomy, mean ± SE
Protocol: (§1) Male CD-1 mice were anesthetized by inhaled isoflurane and prepared for surgery. The abdomen was shaved of hair and treated with antiseptic solution. The animal was then covered with a surgical drape, leaving the abdomen exposed. A mid-line laparotomy was performed, and the entire small intestine was exteriorized onto the sterile drape. Using two moistened, sterile, cotton-tipped applicators, the small intestine was then gently compressed along its length from the ligament of Treitz to the ileo-cecal junction. The small intestine was then returned to the abdominal cavity and the incision closed by two layers of sutures.
(§2) Age-matched mice were randomly assigned to groups (6 animals per group) and injected intraperitoneally (i.p.) with “vehicle” (a mixture of 5% ethanol/5% Tween80/90% of 5% dextran in water w/v) containing various doses of a test compound 1 hr prior to laparotomy. The second group was injected intraperitoneally with vehicle. The third group was administered intragastrically (1 mg/kg) a mixture (1 mg/mL) of dexamethasone in 20% hydroxypropyl methyl dextran in water, once per day for two days prior to surgery and 5 hrs post-laparotomy. The fourth group received no intervention and served as naïve controls.
Microscopic histological examination was performed on harvested tissues 24 hr post-laparotomy. […] Hanker-Yates reagent (Polysciences Inc.) forms an insoluble, blue-black polymer in the presence of hydrogen peroxide and peroxidase enzyme activity. Segments of mid small bowel were collected from the centrifuge tubes described in the previous section. Whole mounts of the muscle layer were prepared by opening the tube of bowel along the mesenteric border and pinning the tissue flat in a Sylgard™ lined Petri dish with the mucosal surface facing upward. The tissue was stretched to 1.5 times its length and 2.5 times its width, and the mucosa removed by fine dissection. The remaining muscularis whole mounts were then fixed with 100% ethanol for 45 min, washed 3 times with PBS, and incubated for 20 min in PBS containing 0.1% hydrogen peroxide and 1 mg/ml Hanker-Yates reagent (Polysciences, Inc). The reagent is polymerized in the presence of hydrogen peroxide and peroxidase activity to form a blue-black deposit. Following a second wash with PBS, the whole mounts were mounted on glass slides, cover-slipped, and viewed on an optical microscope. Myeloperoxidase containing leukocytes were counted in 6 to 8 adjacent 200× optical fields, and the mean cell counts were calculated and recorded.
The presence of myeloperoxidase (MPO) positive immune cells in the intestinal muscularis is rare in normal animals.

Male CD-1 mice [2] = test: Postoperative inflammatory ileus, upper gastrointestinal transit (FITC-dextran, Geometric Center); assay type: in vivo; details: Surgical Manipulation, 24 hr post-laparotomy, mean ± SE, scale 1 to 15
Protocol: as §1, §2
Upper gastrointestinal transit was measured 24 hr post-laparotomy. Mice were fed a test meal consisting of 150 μL of FITC-dextran solution (5 mg/mL of 70,000 molecular weight dextran conjugated to fluorescein-isothiocyanate in 0.5% hydroxypropyl methylcellulose/deionized water) administered intragastrically by an 18 gauge feeding tube. Following oral administration of the FITC-dextran test meal, animals were returned to their home cages. Following a 45 min test period, mice were euthanized by isoflurane overdose and exsanguination. The entire gastrointestinal tract from the lower esophageal sphincter to the terminal colon was removed. The bowel segments were opened along the mesenteric border. The tissue and luminal contents of the stomach, 10 equal segments of small intestine, the cecum, and 3 equal segments of colon were placed in individual Eppendorf tubes containing 1 ml of PBS. The tissue was vigorously mixed on a tabletop vortex, and solid materials were pelletized by centrifugation. Aliquots of the cleared supernatant were read in duplicate on a 96-well fluorescence plate reader to quantify the magnitude of the fluorescent signal in each segment of bowel.
These values were used to calculate the Geometric Center (REF), which is defined as the weighted average distribution of the fluorescent signal along the gastrointestinal tract: GC=Σ(% of total fluorescent signal per segment×segment number)/100,
Higher GC values represent faster rates of transit on scale of 1 to 15.
Surgical manipulation of the small bowel leads to a significant delay in gastrointestinal transit, going from a Geometric Center of 8.4 in normal mice to 3.3 in vehicle treated animals.

C[C@H](NS(=O)(=O)/C=C/c1n[nH]c2c1CCCCC2Cc1cccc(F)c1)c1ccccc1 (single isomer, unassigned) [Cpd 232, (2E)-2-[(8R*)-8-(3-fluoro-benzyl)-1,4,5,6,7,8-hexahydro-cycloheptapyrazol-3-yl]-ethenesulfonic acid [(1S)-1-phenyl-ethyl]-amide]
MPO-Positive Cells (Per 200× Optical Field) (Male CD-1 mice [1]; dose 10 mg/kg): 127.6 ± 25.7 | MPO-Positive Cells (Per 200× Optical Field) (Male CD-1 mice [1]; dose 30 mg/kg): 60.2 ± 20.8 | Geometric Center (upper gastrointestinal transit) (Male CD-1 mice [2]; dose 10 mg/kg): 4.0 ± 0.59 | Geometric Center (upper gastrointestinal transit) (Male CD-1 mice [2]; dose 30 mg/kg): 5.6 ± 0.16

C[C@H](NS(=O)(=O)/C=C/c1n[nH]c2c1CCCC/C2=C\c1ccc(Cl)cc1)c1ccccc1 [Cpd 237, (2E,8E)-2-[8-(4-chloro-benzylidene)-1,4,5,6,7,8-hexahydro-cycloheptapyrazol-3-yl]-ethenesulfonic acid [(1S)-1-phenyl-ethyl]-amide]
MPO-Positive Cells (Per 200× Optical Field) (Male CD-1 mice [1]; dose 1 mg/kg): 57.8 ± 17.0 | MPO-Positive Cells (Per 200× Optical Field) (Male CD-1 mice [1]; dose 3 mg/kg): 41.3 ± 9.4 | MPO-Positive Cells (Per 200× Optical Field) (Male CD-1 mice [1]; dose 10 mg/kg): 77.7 ± 25.7 | MPO-Positive Cells (Per 200× Optical Field) (Male CD-1 mice [1]; dose 30 mg/kg): 60.3 ± 20.9 | Geometric Center (upper gastrointestinal transit) (Male CD-1 mice [2]; dose 1 mg/kg): 3.8 ± 0.40 | Geometric Center (upper gastrointestinal transit) (Male CD-1 mice [2]; dose 3 mg/kg): 3.6 ± 0.53 | Geometric Center (upper gastrointestinal transit) (Male CD-1 mice [2]; dose 10 mg/kg): 4.7 ± 0.40 | Geometric Center (upper gastrointestinal transit) (Male CD-1 mice [2]; dose 30 mg/kg): 5.6 ± 0.76
